Test results as given in patent US11056705B2, “Organic anolyte materials for flow batteries” (THE REGENTS OF THE UNIVERSITY OF MICHIGAN, priority 2015, dated 2021).
Where “and” joins values, the source holds several entries; their conditions need not be identical. Equal values may be shown once.

Legend:
[1] = Simulation of CVs fit to experimental data: Li+ association/dissociation with charged anolyte; format: physicochemical
Procedure: To obtain values for the rates for association as well as the equilibrium constant for formation of Li-9a, the redox system proposed in Scheme 9 was computationally modeled. Diffusion constants for the anolyte were calculated to be on the order of 2×10^−9 m^2/s by analysis of changes in the potential at the first reductive couple with variable scan rates. This value was applied for all species in the simulation based on their similar molecular weights. A resistance of 400 ohms and no capacitance was simulated for all couples. With these parameters, the simulations were fit to experimental data acquired at variable scan rates (FIG. 9) in order to estimate the rate constants for association and dissociation of Li^+. The experimentally measured CVs features were accurately reproduced when the rate constant for Li^+ coordination was 10 M^−1s^−1 and the rate constant for dissociation was 0.5 s^−1. These rate constants indicate that the equilibrium constant for binding of Li^+ to 9a^(−) is on the order of 20 M^−1.
This system was further investigated at higher concentrations of Li^+. CVs were acquired at concentrations of LiBF4 ranging from 57 mM to 260 mM with a constant 0.1 M concentration of 9a (FIG. 9b; solid lines). As expected, higher concentrations of LiBF4 led to greater currents from the oxidation of Li-9a. The calculated rate constants (ki=10 M^−1s^−1, k^−1=0.5 s^−1) were employed to model the effects of LiBF4 concentration on the current peak-heights. The results are illustrated in FIG. 9b (dashed lines) and are in full agreement with the experimentally measured CVs.

[2] = Cyclic voltammetry (CV) of anolyte candidates in a three-electrode cell; format: physicochemical; conditions: for current ratio i9a(−)/iLi-9a: 0.1 M LiBF4 in MeCN; for baseline (initial) current at starting potential of +1 V: MeCN/LiBF4, 0.01 M, 100 mV/s
[3] = physchem; conditions: organic solvent or mixture, thermodynamic from solid
[4] = Stability of solutions in MeCN monitored by 1H NMR or UV-vis spectroscopy; format: physicochemical
Procedure: The stabilities of 10a, 10a^(•) and Na-10a^(−) were monitored as solutions in MeCN by ^1H NMR spectroscopy or UV-vis spectroscopy. Separate solutions of 10a, 10a^(•) and Na-10a^(−) in MeCN were prepared at 480 mM, 540 mM and 39 mM concentrations, respectively. The parent compound 10a was monitored by ^1H NMR spectroscopy against an internal standard of 1,3,5-trimethoxybenzene. […] Solutions of the reduced species 10a^(•) and Na-10a^(−) were stored at room temperature under nitrogen, and the concentrations of the solutions were measured periodically over 36 h or 48 h by UV-vis spectroscopy (FIG. 13).

[5] = Solubility in MeCN by UV-vis spectroscopy under inert atmosphere
[6] = simulation fit to experimental CVs at variable scan rates, MeCN/LiBF4
[7] = MeCN/LiBF4, cathodic sweep starting at +1 V

Row | diffusion constant ([1]; from changes in potential at the first reductive couple with variable scan rates) | equilibrium constant for binding of Li^+ ([1]; from the fitted rate constants) | current ratio i9a(−)/iLi-9a ([2]; 50 mV/s) | current ratio i9a(−)/iLi-9a ([2]; 200 mV/s) | current ratio i9a(−)/iLi-9a ([2]; 500 mV/s) | potential at which charged anolyte is oxidized (discharged) ([2]; MeCN, 0.1 M LiBF4) | current at +0.4 V (lithium adduct formation) ([2]; MeCN, 0.1 M LiBF4, 200 mV/s) | first single-electron reduction (step i) [2, 7] | second single-electron reduction (step ii) [2, 7] | solubility [3] | difference of first reduction potential, 9a versus 10a ([2]; MeCN/LiBF4) | peak height ratios of two reductive couples ([2]; MeCN/LiBF4) | second reduction more positive than that of 9a ([2]; MeCN/LiBF4) | baseline (initial) current at starting potential of +1 V [2] | decomposition in solution ([4]; 480 mM in MeCN, 1H NMR vs internal standard, four days, in the presence of air and moisture) | solubility (saturation concentration) [5] | concentration of solution on storage ([4]; MeCN, room temperature under nitrogen, UV-vis over 36 h or 48 h, 540 mM (10a•), 39 mM (Na-10a−)) | Structure (SMILES) | rate constant for Li^+ coordination [1, 6] | rate constant for dissociation [1, 6]
1 | ~2×10^−9 m^2/s | ~20 M⁻¹ | 32 | 11 | 6 | −1.7 V | almost no current was detected | −1.1 V | −1.9 V |  |  |  |  |  |  |  |  | COC(=O)c1cc[n+](C)cc1.F[B-](F)(F)F [Compound 9a] | 10 M⁻¹ s⁻¹ | 0.5 s⁻¹
2 |  |  |  |  |  |  |  |  |  | 1600 ± 100 mM | 0.1 V | close to 1 | 0.4 V | no analogous current is observed | No measurable decomposition |  |  | CC(=O)c1cc[n+](C)cc1 [Compound 10a] |  | 
3 |  |  |  |  |  |  |  |  |  |  |  |  |  | 40-50 μA and 45 μA |  | 62 ± 7 mM | did not change | CC([O-])=C1C=CN(C)C=C1.[Na+] [Na-10a^(−)] |  | 
